In ChEMBL document CHEMBL3603806, “Discovery of a 6-(pyridin-3-yl)benzo[d]thiazole template for optimization of hedgehog and PI3K/AKT/mTOR dual inhibitors” (Bioorg Med Chem Lett, 2015):
The source made the active and inactive calls. The calls are words filed in the database; no cut-off is given here.

Key:
Protein smoothened [1] = target: Protein smoothened (Mus musculus, UniProt P56726); experiment: Inhibition of SMO in mouse NIH/3T3 cells assessed as inhibition of SAG-induced hedgehog-mediated luminescence signaling by GRE-luciferase reporter gene assay; format: cell-based
[2] = target: T1, Phosphatidylinositol 4,5-bisphosphate 3-kinase catalytic subunit alpha isoform (Homo sapiens, UniProt P42336); experiment: Inhibition of PI3Kalpha (unknown origin) assessed as reduction in luminescence signaling by kinase-Glo plus luminescent kinase assay
Protein smoothened [3] = target: Protein smoothened (Homo sapiens, UniProt Q99835); experiment: Inhibition of human Smo expressed in human U2OS cells assessed as reduction in BODIPY-cyclopamine fluorescence signaling by competitive displacement assay; format: cell-based
[4] = target: T1, Phosphatidylinositol 4,5-bisphosphate 3-kinase catalytic subunit alpha isoform; experiment: Inhibition of PI3Kalpha (unknown origin) assessed as reduction in luminescence signaling at 1 uM by kinase-Glo plus luminescent kinase assay
[5] = Solubility of the compound; format: physicochemical
[6] = target: T2, Phosphatidylinositol 4,5-bisphosphate 3-kinase catalytic subunit delta isoform (Homo sapiens) (UniProt O00329); experiment: Inhibition of N-terminal poly-His tagged human p110-delta expressed in Sf9 cells incubated for 20 mins by alpha screen assay
T2 sequence (whole entry): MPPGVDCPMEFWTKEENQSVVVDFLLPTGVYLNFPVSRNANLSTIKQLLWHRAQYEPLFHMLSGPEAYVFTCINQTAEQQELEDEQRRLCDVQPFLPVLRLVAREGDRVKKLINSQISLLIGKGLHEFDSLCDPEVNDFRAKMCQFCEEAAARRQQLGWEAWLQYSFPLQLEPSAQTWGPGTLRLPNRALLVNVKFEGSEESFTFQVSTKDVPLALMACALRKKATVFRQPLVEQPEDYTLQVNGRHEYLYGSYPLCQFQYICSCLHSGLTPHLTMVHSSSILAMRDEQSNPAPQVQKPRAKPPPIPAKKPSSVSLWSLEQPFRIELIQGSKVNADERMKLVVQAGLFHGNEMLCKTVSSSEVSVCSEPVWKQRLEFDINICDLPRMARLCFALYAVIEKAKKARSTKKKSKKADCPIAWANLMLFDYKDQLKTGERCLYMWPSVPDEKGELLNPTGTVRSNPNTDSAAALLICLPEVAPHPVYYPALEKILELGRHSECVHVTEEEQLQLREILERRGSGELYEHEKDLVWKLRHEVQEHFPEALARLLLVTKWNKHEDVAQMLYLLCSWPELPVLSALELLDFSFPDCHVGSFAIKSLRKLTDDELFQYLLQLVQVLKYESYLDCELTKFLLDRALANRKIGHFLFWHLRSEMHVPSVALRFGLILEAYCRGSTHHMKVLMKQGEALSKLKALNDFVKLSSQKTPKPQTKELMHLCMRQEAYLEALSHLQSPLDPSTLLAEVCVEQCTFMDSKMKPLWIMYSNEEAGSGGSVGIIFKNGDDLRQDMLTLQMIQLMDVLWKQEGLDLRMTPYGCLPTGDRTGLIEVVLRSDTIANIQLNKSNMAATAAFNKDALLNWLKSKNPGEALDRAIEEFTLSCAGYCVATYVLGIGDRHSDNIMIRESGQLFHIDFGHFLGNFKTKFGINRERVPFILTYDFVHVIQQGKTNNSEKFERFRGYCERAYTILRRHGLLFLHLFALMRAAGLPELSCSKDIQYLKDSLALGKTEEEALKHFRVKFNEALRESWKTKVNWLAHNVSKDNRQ

T1 sequence (P42336 whole entry, canonical isoform): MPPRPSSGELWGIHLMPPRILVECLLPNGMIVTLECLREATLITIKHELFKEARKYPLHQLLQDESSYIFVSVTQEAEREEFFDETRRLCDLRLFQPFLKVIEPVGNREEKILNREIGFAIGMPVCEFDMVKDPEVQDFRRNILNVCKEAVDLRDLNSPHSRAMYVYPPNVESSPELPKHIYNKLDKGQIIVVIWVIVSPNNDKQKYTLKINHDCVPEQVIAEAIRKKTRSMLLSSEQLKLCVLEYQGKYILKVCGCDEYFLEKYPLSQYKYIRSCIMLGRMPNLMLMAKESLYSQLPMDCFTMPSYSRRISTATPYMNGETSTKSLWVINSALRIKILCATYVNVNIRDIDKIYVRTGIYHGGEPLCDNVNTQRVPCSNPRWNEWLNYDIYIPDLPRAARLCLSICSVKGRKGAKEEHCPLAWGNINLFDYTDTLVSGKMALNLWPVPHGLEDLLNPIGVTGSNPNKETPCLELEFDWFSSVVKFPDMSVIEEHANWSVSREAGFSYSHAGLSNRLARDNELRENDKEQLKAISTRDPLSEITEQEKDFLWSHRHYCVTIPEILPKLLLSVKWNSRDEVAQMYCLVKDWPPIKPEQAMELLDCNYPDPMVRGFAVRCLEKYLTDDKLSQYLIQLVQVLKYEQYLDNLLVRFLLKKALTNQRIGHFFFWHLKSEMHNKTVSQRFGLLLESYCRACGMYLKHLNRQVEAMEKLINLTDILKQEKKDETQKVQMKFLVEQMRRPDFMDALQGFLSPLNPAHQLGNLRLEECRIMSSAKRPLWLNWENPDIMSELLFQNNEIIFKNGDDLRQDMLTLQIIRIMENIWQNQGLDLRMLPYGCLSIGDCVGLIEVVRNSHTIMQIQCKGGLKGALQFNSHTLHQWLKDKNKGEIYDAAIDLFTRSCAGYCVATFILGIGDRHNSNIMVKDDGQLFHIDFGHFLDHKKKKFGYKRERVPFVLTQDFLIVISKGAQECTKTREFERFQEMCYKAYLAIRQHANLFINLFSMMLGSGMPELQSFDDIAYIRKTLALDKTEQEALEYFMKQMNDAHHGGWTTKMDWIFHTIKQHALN
Sequence of Protein smoothened (Mus musculus, UniProt P56726) (P56726 whole entry, canonical isoform): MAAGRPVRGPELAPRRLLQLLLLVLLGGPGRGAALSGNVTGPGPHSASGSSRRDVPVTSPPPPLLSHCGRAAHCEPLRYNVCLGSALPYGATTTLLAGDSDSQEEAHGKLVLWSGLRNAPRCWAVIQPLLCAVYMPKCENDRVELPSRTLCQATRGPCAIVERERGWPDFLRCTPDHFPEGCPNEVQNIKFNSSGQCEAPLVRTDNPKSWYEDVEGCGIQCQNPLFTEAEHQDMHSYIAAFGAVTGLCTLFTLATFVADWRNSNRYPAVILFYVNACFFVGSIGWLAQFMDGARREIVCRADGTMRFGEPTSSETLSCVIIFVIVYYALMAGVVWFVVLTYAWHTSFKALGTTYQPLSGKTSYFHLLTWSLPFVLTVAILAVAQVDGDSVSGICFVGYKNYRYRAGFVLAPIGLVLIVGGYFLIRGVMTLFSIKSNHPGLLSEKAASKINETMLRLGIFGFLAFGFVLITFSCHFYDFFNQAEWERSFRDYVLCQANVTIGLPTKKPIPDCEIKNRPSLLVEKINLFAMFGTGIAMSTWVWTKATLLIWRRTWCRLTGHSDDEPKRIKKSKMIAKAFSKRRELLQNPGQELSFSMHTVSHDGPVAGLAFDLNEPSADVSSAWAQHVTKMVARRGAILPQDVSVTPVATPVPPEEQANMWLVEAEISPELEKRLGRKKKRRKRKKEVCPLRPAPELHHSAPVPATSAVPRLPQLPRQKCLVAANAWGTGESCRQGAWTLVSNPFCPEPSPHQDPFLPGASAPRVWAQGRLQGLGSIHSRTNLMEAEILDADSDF
Sequence of Protein smoothened (Homo sapiens, UniProt Q99835) (Q99835 whole entry, canonical isoform): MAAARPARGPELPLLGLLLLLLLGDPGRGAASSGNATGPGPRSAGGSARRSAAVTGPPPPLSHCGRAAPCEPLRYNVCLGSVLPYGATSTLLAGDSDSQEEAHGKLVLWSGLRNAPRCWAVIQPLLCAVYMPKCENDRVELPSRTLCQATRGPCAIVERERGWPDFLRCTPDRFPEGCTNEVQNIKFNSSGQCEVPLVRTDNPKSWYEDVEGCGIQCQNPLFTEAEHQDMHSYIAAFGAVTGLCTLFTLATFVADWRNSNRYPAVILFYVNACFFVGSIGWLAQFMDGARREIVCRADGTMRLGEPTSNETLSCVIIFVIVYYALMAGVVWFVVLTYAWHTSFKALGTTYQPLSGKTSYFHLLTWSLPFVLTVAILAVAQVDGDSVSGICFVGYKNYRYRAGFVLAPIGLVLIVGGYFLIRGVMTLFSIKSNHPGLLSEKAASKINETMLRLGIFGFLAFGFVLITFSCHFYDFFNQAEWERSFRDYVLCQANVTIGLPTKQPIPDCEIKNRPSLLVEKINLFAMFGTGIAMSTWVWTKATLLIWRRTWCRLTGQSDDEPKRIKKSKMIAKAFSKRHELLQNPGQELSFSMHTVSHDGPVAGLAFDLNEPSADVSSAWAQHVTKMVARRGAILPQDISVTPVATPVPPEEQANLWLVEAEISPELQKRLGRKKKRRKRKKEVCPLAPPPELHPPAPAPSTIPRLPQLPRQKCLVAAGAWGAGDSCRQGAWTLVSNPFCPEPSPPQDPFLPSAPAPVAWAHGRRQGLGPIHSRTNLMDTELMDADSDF

Compound | IC50 (Protein smoothened [1]) [nM] | further results
CC(=O)Nc1nc2ccc(-c3cnc(Cl)c(NC(=O)c4ccc(C)cc4)c3)cc2s1 | 810 | 
CC(=O)Nc1nc2ccc(-c3cnc(Cl)c(NC(=O)c4cccc(Cl)c4)c3)cc2s1 | 41 | IC50 [2]: 980 nM; IC50 (Protein smoothened [3]): 10 nM; inhibition [4]: 93%
CC(=O)Nc1nc2ccc(-c3cnc(Cl)c(NC(=O)c4ccccc4)c3)cc2s1 | 64 | IC50 (Protein smoothened [3]): 5.6 nM; inhibition [4]: 9%
CC(=O)Nc1nc2ccc(-c3cnc(Cl)c(NC(=O)c4cccc(F)c4)c3)cc2s1 | 5000 | 
CC(=O)Nc1nc2ccc(-c3cnc(Cl)c(NC(=O)C4CC4)c3)cc2s1 | > 10000 | 
CC(=O)Nc1nc2ccc(-c3cnc(Cl)c(NS(=O)(=O)c4ccc(F)cc4)c3)cc2s1 | 120 | solubility [5]: Insoluble; inhibition [6]: Active
CC(=O)Nc1nc2ccc(-c3cnc(Cl)c(NC(C#N)c4ccccc4)c3)cc2s1 (configuration not stated) | 100 | IC50 [2]: 490 nM; inhibition [4]: 85%
CC(=O)Nc1nc2ccc(-c3cnc(Cl)c(NC(=O)c4ccc(F)cc4)c3)cc2s1 | 170 | inhibition [4]: 48%
O=C(Nc1cc(-c2ccc3nc(NC4CC4)sc3c2)cnc1Cl)c1ccccc1 | 210 | 
CC(=O)Nc1nc2ccc(-c3cnc(Cl)c(NC(=O)Cc4ccccc4)c3)cc2s1 | 3400 | 
CC(=O)Nc1nc2ccc(-c3cnc(Cl)c(NCc4ccccc4)c3)cc2s1 | 940 | 
O=C(Nc1cc(-c2ccc3nc(NCC4CC4)sc3c2)cnc1Cl)c1cccc(Cl)c1 | 190 | 
CC(=O)Nc1nc2ccc(-c3cnc(Cl)c(NC(=O)c4ccccc4Cl)c3)cc2s1 | 4100 | 
O=C(Nc1cc(-c2ccc3nc(NCC4CC4)sc3c2)cnc1Cl)c1ccccc1 | 150 | 
CC(=O)Nc1nc2ccc(-c3cnc(Cl)c(NC(=O)c4ccccc4F)c3)cc2s1 | > 10000 | 
CC(=O)Nc1nc2ccc(-c3cnc(Cl)c(NC(=O)c4ccc(Cl)cc4)c3)cc2s1 | > 10000 | 
O=C(Nc1cc(-c2ccc3nc(NC4CC4)sc3c2)cnc1Cl)c1cccc(Cl)c1 | 150 | 
